In patent US8629284B2, “Chemical compounds” (Syngenta Crop Protection, LLC, priority 2008, dated 2014):

Key:
[1] = tested on: Myzus persicae; experiment: B3: Myzus persicae (green peach aphid), mixed population, systemic/feeding activity, curative; format: in vivo; settings: 144 h, roots of infested pea seedlings in test solution of 24 ppm, 6 days after introduction, read-out: control of Myzus persicae (mortality)
Text: B3: Myzus persicae (green peach aphid) (mixed population, systemic/feeding activity, curative)
Roots of pea seedlings, infested with an aphid population of mixed ages, were placed directly in the test solutions of 24 ppm. 6 days after introduction, samples were checked for mortality and special effects on the plant.

[2] = tested on: Myzus persicae; experiment: B2: Myzus persicae (green peach aphid), mixed population, feeding/residual contact activity, preventive; format: in vivo; settings: foliar, 144 h, sunflower leaf discs sprayed with 200 ppm, 6 days incubation, read-out: control of Myzus persicae (mortality)
Experimental: B2: Myzus persicae (green peach aphid) (mixed population, feeding/residual contact activity, preventive)
Sunflower leaf discs were placed on agar in a 24-well microtiter plate and sprayed with test solutions of 200 ppm. After drying, the leaf discs were infested with an aphid population of mixed ages. After an incubation period of 6 days, samples were checked for mortality and special effects (e.g. phytotoxicity).

With CCNC1=NS(=O)(=O)c2cccc(F)c21 [Compound P1.15, N-Ethyl-4-fluoro-1,2-benzisothiazol-3-amine 1,1-dioxide] the mortality at 24 ppm [1] was ≥ 80% and the mortality at 200 ppm [2] was ≥ 65%.

For N=C1c2c(F)cccc2S(=O)(=O)N1CC1CC1 [Compound P2.3, 4-Fluoro-2-cyclopropylmethyl-1,2-benzisothiazol-3(2H)-imine 1,1-dioxide], the mortality at 24 ppm [1] was ≥ 80%.
